The results in this text go back to patent US12344606B2, “Next-generation modulators of stimulator of interferon genes (STING)” (RYVU THERAPEUTICS S.A., priority 2019, dated 2025).

One assay addresses human STING (Homo sapiens, UniProt Q86WV6). The assay can be described thus: Fluorescence Thermal Shift assay (hSTING FTS binding assay). As to conditions: STING 0.1 mg/ml, 20 min preincubation, SyproOrange. The protocol:
Compounds of the present invention were tested for binding to human STING in Fluorescence Thermal Shift assay. STING was preincubated with the compounds for 20 minutes in 50 mM Hepes, 150 mM NaCl, pH 7.5 in 16 μl volume, following by adding 4 μl of SyproOrange dye dilution (ThermoFisher, cat no. S-6651). Final STING concentration was 0.1 mg/ml. Thermal unfolding was performed in Real-Time PCR QuantStudio 6 Flex System (Applied Biosystems), from 25 to 99° C., with continuous ramp mode and ramp rate 0.033° C./s. The data were analyzed using Protein Thermal Shift Software (ThermoFisher).

In assay [1] the test system is interferon regulatory factor (IRF) pathway in THP-1 dual cells. The assay can be described thus: THP-1 Dual reporter assay, IRF pathway (luciferase). As to conditions: Homo sapiens, THP1-Dual; 18 h stimulation, luminescence. In kind it is cell-based. The procedure: (§1) Compounds of the present invention were tested for their activity using THP-1 dual cells (Invivogen, cat no. thpd-nfis) allowing for simultaneous study of NF-κB pathway and the interferon regulatory factor (IRF) pathway. THP-1 dual cells contain luciferase reporter gene under the control of an ISG54 (interferon-stimulated gene) minimal promoter in conjunction with five interferon-stimulated response elements and a secreted embryonic alkaline phosphatase reporter gene under the control an IFN (interferon)-β minimal promoter fused to five copies of the NF-κB consensus transcriptional response element with three copies of the c-Rel binding site. Following 18 h of stimulation with STING agonist, medium was collected and transferred onto fresh cell culture plate. To verify activity of the IRF pathway, luminescence activity was measured with standard laboratory plate reader immediately after addition 10 μl of the medium to 50 μl (or 40 μl) of luminescence reagent (Invivogen, cat. No. rep-qlc2). To verify activity of NF-κB pathway, 20 μl (or 10 μl) of the medium was mixed with 80 μl of a detection medium (Invivogen, cat. No. rep-qb2) and incubated for 2 hours (or 1 hour) at 37° C. in a humidified atmosphere containing 5% CO2. Next, absorbance at 630 nm (or 655 nm) was recorded using standard laboratory plate reader.
(Reporter assays use an easily measured gene product as a stand-in for the process of interest.)

The subject of assay [2] is NF-κB pathway in THP-1 dual cells. Description: THP-1 Dual reporter assay, NF-κB pathway (SEAP). It is filed as cell-based. Conditions: Homo sapiens, THP1-Dual; 18 h stimulation, absorbance; read-out: THP1 Dual EC50 (μM) NFkB. The procedure:
as §1

The structures appear in SMILES notation.

Sequence of human STING (Q86WV6 whole entry H232R): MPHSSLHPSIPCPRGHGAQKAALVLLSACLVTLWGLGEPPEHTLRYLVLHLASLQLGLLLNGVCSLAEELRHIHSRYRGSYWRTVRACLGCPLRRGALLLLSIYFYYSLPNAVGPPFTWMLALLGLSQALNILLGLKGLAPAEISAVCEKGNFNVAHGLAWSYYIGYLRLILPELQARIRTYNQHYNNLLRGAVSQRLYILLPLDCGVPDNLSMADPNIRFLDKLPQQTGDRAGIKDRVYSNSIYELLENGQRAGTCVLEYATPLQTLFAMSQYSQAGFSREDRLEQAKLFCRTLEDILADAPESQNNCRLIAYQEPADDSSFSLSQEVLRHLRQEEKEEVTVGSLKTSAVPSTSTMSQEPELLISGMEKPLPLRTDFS

The EC50 is the concentration giving half of the maximal effect. `Cc1cc(CN(Cc2cn(C)c3ccccc3c2=O)[C@H]2CCCN(c3nnc(C)o3)C2)ccn1` [Example 53, 1-methyl-3-({[(3S)-1-(5-methyl-1,3,4-oxadiazol-2-yl)piperidin-3-yl][(2-methylpyridin-4-yl)methyl]amino}methyl)-1,4-dihydroquinolin-4-one]: the “hSTING FTS binding assay (ΔT C.°)” value on human STING is “+ (ΔTm<10° C.)”. Besides, the EC50 in assay [1] was at least 10 µM; in assay [2] it was 1 to 10 µM.
In the same order, the values of `CCc1cc(CN(Cc2cn(C)c3ccccc3c2=O)C2CCCN(c3cccnc3)C2)ccn1` (stereo not drawn) [Example 21, 3-({[(2-ethylpyridin-4-yl)methyl][1-(pyridin-3-yl)piperidin-3-yl]amino}methyl)-1-methyl-1,4-dihydroquinolin-4-one] are “+ (ΔTm<10° C.)”, at least 10 µM and at least 10 µM.
Turning to `Cn1cc(CN(Cc2ccncc2)[C@H]2CCCN(c3cccnc3)C2)c(=O)c2ccccc21` [Example 39, 1-methyl-3-({[(3S)-1-(pyridin-3-yl)piperidin-3-yl][(pyridin-4-yl)methyl]amino}methyl)-1,4-dihydroquinolin-4-one], on human STING, the “hSTING FTS binding assay (ΔT C.°)” value is recorded as “++ (ΔTm>10° C.)”. Further, the EC50 is at most 1 µM in assay [1] and 1 to 10 µM in assay [2].
In the case of `COc1cc(CN(Cc2cn(C3CC3)c3cc(F)c(F)cc3c2=O)[C@H]2CCCN(c3cccnc3)C2)ccn1` [Example 11, 1-cyclopropyl-6,7-difluoro-3-({[(2-methoxypyridin-4-yl)methyl][(3S)-1-(pyridin-3-yl)piperidin-3-yl]amino}methyl)-1,4-dihydroquinolin-4-one], the “hSTING FTS binding assay (ΔT C.°)” value on human STING is “++ (ΔTm>10° C.)”. In addition, the half-maximal effective concentration (EC50) in assay [1] and in assay [2] was at most 1 µM each time.
In the case of `Cc1cc(CN(Cc2cn(C3CC3)c3cc(F)c(F)cc3c2=O)[C@H]2CCCN(c3cccnc3)C2)ccn1` [Example 12, 1-cyclopropyl-6,7-difluoro-3-({[(2-methylpyridin-4-yl)methyl][(3S)-1-(pyridin-3-yl)piperidin-3-yl]amino}methyl)-1,4-dihydroquinolin-4-one], the “hSTING FTS binding assay (ΔT C.°)” value at human STING was “++ (ΔTm>10° C.)”. In addition, the EC50 in assay [1] and in assay [2] was at most 1 µM in each case.
Take `Cc1cc(CN(Cc2cn(C)c3ccccc3c2=O)[C@H]2CCCN(c3ccccn3)C2)ccn1` [Example 13, 1-methyl-3-({[(2-methylpyridin-4-yl)methyl][(3S)-1-(pyridin-2-yl)piperidin-3-yl]amino}methyl)-1,4-dihydroquinolin-4-one]: the “hSTING FTS binding assay (ΔT C.°)” value at human STING is given as “+ (ΔTm<10° C.)”. In addition, the EC50 in assay [1] and in assay [2] was 1 to 10 µM throughout.
In the case of `COc1cc(CN(Cc2cn(C3CC3)c3cc(F)c(F)cc3c2=O)[C@H]2CCCN(c3ccc(C)nc3)C2)ccn1` [Example 31, 1-cyclopropyl-6,7-difluoro-3-({[(2-methoxypyridin-4-yl)methyl][(3S)-1-(6-methylpyridin-3-yl)piperidin-3-yl]amino}methyl)-1,4-dihydroquinolin-4-one], the “hSTING FTS binding assay (ΔT C.°)” value at human STING is “++ (ΔTm>10° C.)”. The EC50 in assay [1] and in assay [2] was at most 1 µM throughout.
In the case of `Cc1cc(CN(Cc2cn(C)c3ccccc3c2=O)[C@H]2CCCN(c3ccn(C)c(=O)c3)C2)ccn1` [Example 41, 1-methyl-3-({[(3S)-1-(1-methyl-2-oxo-1,2-dihydropyridin-4-yl)piperidin-3-yl][(2-methylpyridin-4-yl)methyl]amino}methyl)-1,4-dihydroquinolin-4-one], the “hSTING FTS binding assay (ΔT C.°)” value on human STING is “+ (ΔTm<10° C.)”. Also, the EC50 in assay [1] and in assay [2] was at least 10 µM each time.
Turning to `Cc1ccc(N2CCC[C@H](N(Cc3ccnc(C)c3)Cc3cn(C4CC4)c4cc(Cl)c(F)cc4c3=O)C2)cn1` [Example 40, 7-chloro-1-cyclopropyl-6-fluoro-3-({[(3S)-1-(6-methylpyridin-3-yl)piperidin-3-yl][(2-methylpyridin-4-yl)methyl]amino}methyl)-1,4-dihydroquinolin-4-one], the “hSTING FTS binding assay (ΔT C.°)” value at human STING is recorded as “++ (ΔTm>10° C.)”. Besides, the half-maximal effective concentration (EC50) in assay [1] and in assay [2] was at most 1 µM each time.
Consider `Cc1ccc(N2CCC[C@H](N(Cc3ccnc(C)c3)Cc3cn(C4CC4)c4[nH]c(=O)c(F)cc4c3=O)C2)cn1` [Example 43, 1-cyclopropyl-6-fluoro-7-hydroxy-3-({[(3S)-1-(6-methylpyridin-3-yl)piperidin-3-yl][(2-methylpyridin-4-yl)methyl]amino}methyl)-1,4-dihydro-1,8-naphthyridin-4-one], for which the “hSTING FTS binding assay (ΔT C.°)” value on human STING is “++ (ΔTm>10° C.)”. For the same compound, the EC50 in assay [1] and in assay [2] was at least 10 µM each time.
For `Cc1cc(CN(Cc2cn(C)c3ccccc3c2=O)[C@H]2CCCN(c3cc[nH]c(=O)c3)C2)ccn1` [Example 30, 1-methyl-3-({[(2-methylpyridin-4-yl)methyl][(3S)-1-(2-oxo-1,2-dihydropyridin-4-yl)piperidin-3-yl]amino}methyl)-1,4-dihydroquinolin-4-one], on human STING, the “hSTING FTS binding assay (ΔT C.°)” value is given as “+ (ΔTm<10° C.)”. For the same compound, the EC50 in assay [1] and in assay [2] was at least 10 µM throughout.
For `Cc1cc(CN(Cc2cn(C)c3ccccc3c2=O)[C@H]2CCCN(c3ccc(F)nc3)C2)ccn1` [Example 16, 3-({[(3S)-1-(6-fluoropyridin-3-yl)piperidin-3-yl][(2-methylpyridin-4-yl)methyl]amino}methyl)-1-methyl-1,4-dihydroquinolin-4-one], on human STING, the “hSTING FTS binding assay (ΔT C.°)” value was “+ (ΔTm<10° C.)”. Further, the EC50 in assay [1] and in assay [2] was 1 to 10 µM each time.
As to `Cc1cc(CN(Cc2cn(C)c3cc(Cl)c(F)cc3c2=O)[C@H]2CCCN(c3cccnc3)C2)ccn1` [Example 25, 7-chloro-6-fluoro-1-methyl-3-({[(2-methylpyridin-4-yl)methyl][(3S)-1-(pyridin-3-yl)piperidin-3-yl]amino}methyl)-1,4-dihydroquinolin-4-one], on human STING, the “hSTING FTS binding assay (ΔT C.°)” value is on record as “++ (ΔTm>10° C.)”. For the same compound, the EC50 in assay [1] and in assay [2] was at most 1 µM throughout.
In the case of `Cc1ccc(N2CCC[C@H](N(Cc3ccnc(C)c3)Cc3cn(C4CC4)c4cc(N5CCN[C@H](C)C5)c(F)cc4c3=O)C2)cn1` [Example 46, 1-cyclopropyl-6-fluoro-7-[(3R)-3-methylpiperazin-1-yl]-3-({[(3S)-1-(6-methylpyridin-3-yl)piperidin-3-yl][(2-methylpyridin-4-yl)methyl]amino}methyl)-1,4-dihydroquinolin-4-one], the “hSTING FTS binding assay (ΔT C.°)” value at human STING was “++ (ΔTm>10° C.)”. The 50% effective concentration (EC50) in assay [1] and in assay [2] was at most 1 µM each time.
As for `COC(=O)C1CCN(c2ccc3c(=O)c(CN(Cc4ccnc(C)c4)[C@H]4CCCN(c5cccnc5)C4)cn(C)c3c2)CC1` [Example 29, Methyl 1-[1-methyl-3-({[(2-methylpyridin-4-yl)methyl][(3S)-1-(pyridin-3-yl)piperidin-3-yl]amino}methyl)-4-oxo-1,4-dihydroquinolin-7-yl]piperidine-4-carboxylate], the “hSTING FTS binding assay (ΔT C.°)” value at human STING is given as “++ (ΔTm>10° C.)”. Besides, the EC50 in assay [1] and in assay [2] was at most 1 µM in each case.
For `Cc1ccc(N2CCC[C@H](N(Cc3ccnc(C)c3)Cc3cn(C)c4cc(N5CCNCC5=O)ccc4c3=O)C2)cn1` [Example 49, 1-methyl-3-({[(3S)-1-(6-methylpyridin-3-yl)piperidin-3-yl][(2-methylpyridin-4-yl)methyl]amino}methyl)-7-(2-oxopiperazin-1-yl)-1,4-dihydroquinolin-4-one], the “hSTING FTS binding assay (ΔT C.°)” value at human STING was “+ (ΔTm<10° C.)”. The EC50 in assay [1] and in assay [2] was at least 10 µM each time.
For the compound `COc1ncc(N2CCC[C@H](N(Cc3ccnc(C)c3)Cc3cn(C)c4ccccc4c3=O)C2)cn1` [Example 8, 3-({[(3S)-1-(2-methoxypyrimidin-5-yl)piperidin-3-yl][(2-methylpyridin-4-yl)methyl]amino}methyl)-1-methyl-1,4-dihydroquinolin-4-one], the “hSTING FTS binding assay (ΔT C.°)” value on human STING was “+ (ΔTm<10° C.)”. Also, the EC50 in assay [1] and in assay [2] was at least 10 µM in each case.
Take `Cc1ccc(N2CCC[C@H](N(Cc3ccnc(C)c3)Cc3cn(C4CC4)c4cc(N5CCN(CC(F)F)CC5)c(F)cc4c3=O)C2)cn1` [Example 48, 1-cyclopropyl-7-[4-(2,2-difluoroethyl)piperazin-1-yl]-6-fluoro-3-({[(3S)-1-(6-methylpyridin-3-yl)piperidin-3-yl][(2-methylpyridin-4-yl)methyl]amino}methyl)-1,4-dihydroquinolin-4-one]: the “hSTING FTS binding assay (ΔT C.°)” value at human STING was “++ (ΔTm>10° C.)”. The EC50 in assay [1] and in assay [2] was at most 1 µM throughout.
